What was measured:
Type in all cases: cell-based
[1] = tested on: human colon cancer cells (LS174T); test: LS174T growth inhibition; settings: FIG. 5 and FIG. 6
[2] = tested on: human head and neck squamous cell carcinoma cells (SCC 103); test: SCC103 Tumor Cell Proliferation Assay; settings: SCC 103 cells; FIG. 7 and FIG. 8
Description: (§1) SCC 103 cells (15,000 per well in 90% EMEM medium plus 10% Fetal Bovine Serum [FBS]) were pre-incubated in a black clear bottom 96-well plate in an atmosphere of 5% CO2 at 37° C. for 24 hours. Stock solutions of compounds in DMSO were diluted using a buffer and dilutions were added to each well. […] The final assay pH was 7.4. The cells were incubated in EMEM medium for an additional 72 hours. Alamar Blue (10% of culture volume) was added and the plate was incubated for an additional 12 hours. Fluorescence intensity was measured using a Gemini plate reader with excitation at 530 nm and emission at 590 nm. A decrease of 50 percent or more (≧50%) in fluorescence intensity relative to vehicle treated controls is an indication of significant anti-cancer activity.

[3] = tested on: human melanoma cells (A375); settings: FIG. 1 and FIG. 2
Description: A375 cells (5,000 per well in 90% RPMI-1640 plus 10% Fetal Bovine Serum [FBS]) were pre-incubated in a black clear bottom 96-well plate in an atmosphere of 5% CO2 at 37° C. for 24 hours. Stock solutions of compounds in DMSO were diluted using a buffer and dilutions were added to each well. […] The final assay pH was 7.4. The cells were incubated in RPMI-1 640 with each compound for an additional 72 to 168 hours. Alamar Blue was added and the plate was incubated for an additional 12 hours. Fluorescence intensity was measured using a Gemini plate reader with excitation at 530 nm and emission at 590 nm. A decrease of 50 percent or more (≧50%) in fluorescence intensity relative to vehicle treated controls is an indication of significant anti-cancer activity.
TGI (Total Growth Inhibition): Test compound concentration where the increase in number or mass of cells after 72 to 168 hours is reduced to equal that at time t=0.

[4] = tested on: human hepatic carcinoma cells (HepG2); test: HepG2 Tumor Cell Proliferation Assay; settings: FIG. 3 and FIG. 4
Description: as §1, with “HepG2” for “SCC 103”, “(5,000” for “(15,000”, “[…]” for “96-well”

Measured: growth inhibitory effect compared to Bexarotene

C=C(c1ccc(CC(C(N)=O)C(N)=O)cc1)c1cc2c(cc1C)C(C)(C)CCC2(C)C [Example 8, 2-{4-[1-(3,5,5,8,8-Pentamethyl-5,6,7,8-tetrahydro-naphthalen-2-yl)-vinyl]-benzyl}-malonamide]
enhanced activity: all assays above

C=C(c1ccc(CN2C(=O)CSC2=O)cc1)c1cc2c(cc1C)C(C)(C)CCC2(C)C [Example 10, 3-{4-[1-(3,5,5,8,8-Pentamethyl-5,6,7,8-tetrahydro-naphthalen-2-yl)-vinyl]-benzyl}-thiazolidine-2,4-dione]
enhanced activity: [2] | [3]

C=C(c1ccc(CN2C(=O)CN(C)C2=O)cc1)c1cc2c(cc1C)C(C)(C)CCC2(C)C [Example 11, 1-Methyl-3-{4-[1-(3,5,5,8,8-pentamethyl-5,6,7,8-tetrahydro-naphthalen-2-yl)-vinyl]-benzyl}-imidazolidine-2,4-dione]
enhanced activity: all assays above

C=C(c1ccc(CN2C(=O)NC(C)(C)C2=O)cc1)c1cc2c(cc1C)C(C)(C)CCC2(C)C [Example 12, 5,5-Dimethyl-3-{4-[1-(3,5,5,8,8-pentamethyl-5,6,7,8-tetrahydro-naphthalen-2-yl)-vinyl]-benzyl}-imidazolidine-2,4-dione]
enhanced activity: all assays above

C=C(c1ccc(CN2C(=O)CCNC2=O)cc1)c1cc2c(cc1C)C(C)(C)CCC2(C)C [Example 13, 3-{4-[1-(3,5,5,8,8-Pentamethyl-5,6,7,8-tetrahydro-naphthalen-2-yl)-vinyl]-benzyl}-dihydro-pyrimidine-2,4-dione]
enhanced activity: all assays above

C=C(c1ccc(CN2C(=O)N(C)C(C)(C)C2=O)cc1)c1cc2c(cc1C)C(C)(C)CCC2(C)C [Example 14, 1,5,5-Trimethyl-3-{4-[1-(3,5,5,8,8-pentamethyl-5,6,7,8-tetrahydro-naphthalen-2-yl)-vinyl]-benzyl}-imidazolidine-2,4-dione]
enhanced activity: [1] | [2] | [3]

— US7572816B2, “Therapeutic agents for the treatment of cancer, metabolic diseases and skin disorders” (Auspex Pharmaceuticals, Inc., priority 2004, dated 2009)
